The source of these data is US12428406B2 (PMV Pharmaceuticals, Inc., priority 2019, dated 2025).

This assay deals with T1, p53 Y220C (Homo sapiens, UniProt P04637, Y220C).
T1 construct: The recombinant protein was a truncation mutant containing only amino acids 94-312 of p53; made in house; host or cells: E. coli
T1 sequence (P04637 94-312, change not shown): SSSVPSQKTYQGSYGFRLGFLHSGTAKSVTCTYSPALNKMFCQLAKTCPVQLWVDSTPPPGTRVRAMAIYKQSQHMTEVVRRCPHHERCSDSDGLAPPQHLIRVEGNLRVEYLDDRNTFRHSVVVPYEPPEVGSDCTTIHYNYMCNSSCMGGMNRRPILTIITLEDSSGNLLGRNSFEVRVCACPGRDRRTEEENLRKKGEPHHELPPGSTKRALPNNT
The assay can be described thus: In vitro DNA binding activity assay (HTRF / TR-FRET): stabilization of p53 Y220C and increase of its DNA binding activity. Format: biochemical. To be noted: recombinant His-tagged p53 Y220C DNA binding domain (aa 94-312), biotin-labeled consensus DNA, incubated at 27° C. or 29° C. for 60 min. An outline of the steps:
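Compound effect on DNA binding of recombinant His-p53 Y220C (E. coli) to biotin-labeled consensus DNA, expressed as SC150, the concentration giving 50% increase versus untreated. Serial 3-fold DMSO dilutions of 4.5 mM stocks; room-temperature steps of 15 then 20 min.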
For `COc1cc(S(C)(=O)=O)ccc1NCC#Cc1cc2c(NC3CCN(CC(C)OC(C)=O)CC3)cccc2n1CC(F)(F)F` (stereo not shown) [Compound 567A, 1-{4-[(2-{3-[(4-methanesulfonyl-2-methoxyphenyl)amino]prop-1-yn-1-yl}-1-(2,2,2-trifluoroethyl)-1H-indol-4-yl)amino]piperidin-1-yl}propan-2-yl acetate], the “SC150 (concentration of the compound required to increase the DNA binding activity by 50%)” value was “+ (+ = 0 μM ≤ SC150 < 0.05 μM)”.

With `COc1cc(S(N)(=O)=O)ccc1NCC#Cc1cc2c(NC3CCN(C[C@@H]4COC(C)(C)O4)CC3)cccc2n1CC(F)(F)F` [Compound 568A, 4-[(3-{4-[(1-{[(4R)-2,2-dimethyl-1,3-dioxolan-4-yl]methyl}piperidin-4-yl)amino]-1-(2,2,2-trifluoroethyl)-1H-indol-2-yl}prop-2-yn-1-yl)amino]-3-methoxybenzene-1-sulfonamide], the “SC150 (concentration of the compound required to increase the DNA binding activity by 50%)” value is on record as “+ (+ = 0 μM ≤ SC150 < 0.05 μM)”.

Consider `COCC(O)CN1CCC(Nc2cccc3c2cc(C#CCNc2ccc(S(C)(=O)=O)cc2OC)n3CC(F)(F)F)CC1` (stereo not shown) [Compound 569A, 1-{4-[(2-{3-[(4-methanesulfonyl-2-methoxyphenyl)amino]prop-1-yn-1-yl}-1-(2,2,2-trifluoroethyl)-1H-indol-4-yl)amino]piperidin-1-yl}-3-methoxypropan-2-ol], for which the “SC150 (concentration of the compound required to increase the DNA binding activity by 50%)” value is recorded as “+ (+ = 0 μM ≤ SC150 < 0.05 μM)”.

Regarding `COCCN(C)S(=O)(=O)c1ccc(NCC#Cc2cc3c(NC4CCN(CC(O)CO)CC4)cccc3n2CC(F)(F)F)c(OC)c1` (stereo not shown) [Compound 572A, 4-{[3-(4-{[1-(2,3-dihydroxypropyl)piperidin-4-yl]amino}-1-(2,2,2-trifluoroethyl)-1H-indol-2-yl)prop-2-yn-1-yl]amino}-3-methoxy-N-(2-methoxyethyl)-N-methylbenzene-1-sulfonamide], the “SC150 (concentration of the compound required to increase the DNA binding activity by 50%)” value is reported as “+ (+ = 0 μM ≤ SC150 < 0.05 μM)”.

On to `COCC(O)CN1CCC(Nc2cccc3c2cc(C#CCNc2ccc(S(N)(=O)=O)cc2OC)n3CC(F)(F)F)CC1` (stereo not shown) [Compound 574A, 4-{[3-(4-{[1-(2-hydroxy-3-methoxypropyl)piperidin-4-yl]amino}-1-(2,2,2-trifluoroethyl)-1H-indol-2-yl)prop-2-yn-1-yl]amino}-3-methoxybenzene-1-sulfonamide], for which the “SC150 (concentration of the compound required to increase the DNA binding activity by 50%)” value is “+ (+ = 0 μM ≤ SC150 < 0.05 μM)”.

Take `COCC(=O)N1CCC(Nc2cccc3c2cc(C#CCNc2ccc(S(N)(=O)=O)cc2OC)n3CC(F)(F)F)CC1` [Compound 575A]: the “SC150 (concentration of the compound required to increase the DNA binding activity by 50%)” value was “+ (+ = 0 μM ≤ SC150 < 0.05 μM)”.

As for `COc1cc(S(=O)(=O)N2CCN(C(C)=O)CC2)ccc1NCC#Cc1cc2c(NC3CCN(CC(O)CO)CC3)cccc2n1CC(F)(F)F` (stereo not shown) [Compound 577A, 1-[4-(4-{[3-(4-{[1-(2,3-dihydroxypropyl)piperidin-4-yl]amino}-1-(2,2,2-trifluoroethyl)-1H-indol-2-yl)prop-2-yn-1-yl]amino}-3-methoxybenzenesulfonyl)piperazin-1-yl]ethan-1-one], the “SC150 (concentration of the compound required to increase the DNA binding activity by 50%)” value is “+ (+ = 0 μM ≤ SC150 < 0.05 μM)”.

Turning to `COc1cc(S(C)(=O)=O)ccc1NCC#Cc1cc2c(NC3CCN(C[C@H]4COC(=O)O4)CC3)cccc2n1CC(F)(F)F` [Compound 578A, (4S)-4-({4-[(2-{3-[(4-methanesulfonyl-2-methoxyphenyl)amino]prop-1-yn-1-yl}-1-(2,2,2-trifluoroethyl)-1H-indol-4-yl)amino]pipendin-1-yl}methyl)-1,3-dioxolan-2-one], the “SC150 (concentration of the compound required to increase the DNA binding activity by 50%)” value is “+ (+ = 0 μM ≤ SC150 < 0.05 μM)”.

For `COCC(CN1CCC(Nc2cccc3c2cc(C#CCNc2ccc(S(C)(=O)=O)cc2OC)n3CC(F)(F)F)CC1)OC` (stereo not shown) [Compound 580A, N-[1-(2,3-dimethoxypropyl)piperidin-4-yl]-2-{3-[(4-methanesulfonyl-2-methoxyphenyl)amino]prop-1-yn-1-yl}-1-(2,2,2-trifluoroethyl)-1H-indol-4-amine], the “SC150 (concentration of the compound required to increase the DNA binding activity by 50%)” value is on record as “+ (+ = 0 μM ≤ SC150 < 0.05 μM)”.

Consider `COCC(CN1CCC(Nc2cccc3c2cc(C#CCNc2ccc(S(N)(=O)=O)cc2OC)n3CC(F)(F)F)CC1)OC` (stereo not shown) [Compound 581A, 4-{[3-(4-{[1-(2,3-dimethoxypropyl)piperidin-4-yl]amino}-1-(2,2,2-trifluoroethyl)-1H-indol-2-yl)prop-2-yn-1-yl]amino}-3-methoxybenzene-1-sulfonamide], for which the “SC150 (concentration of the compound required to increase the DNA binding activity by 50%)” value is “+ (+ = 0 μM ≤ SC150 < 0.05 μM)”.

On to `COc1cc(S(=O)(=O)N2CCOCC2)ccc1NCC#Cc1cc2c(NC3CCN(CC(O)CO)CC3)cccc2n1CC(F)(F)F` (stereo not shown) [Compound 582A, 3-(4-{[2-(3-{[2-methoxy-4-(morpholine-4-sulfonyl)phenyl]amino}prop-1-yn-1-yl)-1-(2,2,2-trifluoroethyl)-1H-indol-4-yl]amino}piperidin-1-yl)propane-1,2-diol], for which the “SC150 (concentration of the compound required to increase the DNA binding activity by 50%)” value is “+ (+ = 0 μM ≤ SC150 < 0.05 μM)”.

Take `COc1cc(C(N)=O)ccc1NCC#Cc1cc2c(NC3CCN(C[C@@H](O)CO)CC3)cccc2n1CC(F)(F)F` [Compound 583A]: the “SC150 (concentration of the compound required to increase the DNA binding activity by 50%)” value is “+ (+ = 0 μM ≤ SC150 < 0.05 μM)”.

For `COc1cc(S(C)(=O)=O)ccc1NCC#Cc1cc2c(NC3CCN(CCOC(=O)C(C)C)CC3)cccc2n1CC(F)(F)F` [Compound 584A, 2-{4-[(2-{3-[(4-methanesulfonyl-2-methoxyphenyl)amino]prop-1-yn-1-yl}-1-(2,2,2-trifluoroethyl)-1H-indol-4-yl)amino]piperidin-1-yl} ethyl 2-methylpropanoate], the “SC150 (concentration of the compound required to increase the DNA binding activity by 50%)” value was “+ (+ = 0 μM ≤ SC150 < 0.05 μM)”.

`CCC(=O)OCCN1CCC(Nc2cccc3c2cc(C#CCNc2ccc(S(C)(=O)=O)cc2OC)n3CC(F)(F)F)CC1` [Compound 585A, 2-{4-[(2-{3-[(4-methanesulfonyl-2-methoxyphenyl)amino]prop-1-yn-1-yl}-1-(2,2,2-trifluoroethyl)-1H-indol-4-yl)amino]piperidin-1-yl}ethyl propanoate]: the “SC150 (concentration of the compound required to increase the DNA binding activity by 50%)” value is “+ (+ = 0 μM ≤ SC150 < 0.05 μM)”.

Consider `CCC(=O)OCC(CN1CCC(Nc2cccc3c2cc(C#CCNc2ccc(S(C)(=O)=O)cc2OC)n3CC(F)(F)F)CC1)OC(=O)CC` (stereo not shown) [Compound 586A, 1-{4-[(2-{3-[(4-methanesulfonyl-2-methoxyphenyl)amino]prop-1-yn-1-yl}-1-(2,2,2-trifluoroethyl)-1H-indol-4-yl)amino]piperidin-1-yl}-3-(propanoyloxy)propan-2-yl propanoate], for which the “SC150 (concentration of the compound required to increase the DNA binding activity by 50%)” value is recorded as “+ (+ = 0 μM ≤ SC150 < 0.05 μM)”.

Regarding `CCC(=O)OCC(CN1CCC(Nc2cccc3c2cc(C#CCNc2ccc(S(N)(=O)=O)cc2OC)n3CC(F)(F)F)CC1)OC(=O)CC` (stereo not shown) [Compound 587A, 1-{4-[(2-{3-[(2-methoxy-4-sulfamoylphenyl)amino]prop-1-yn-1-yl}-1-(2,2,2-trifluoroethyl)-1H-indol-4-yl)amino]piperidin-1-yl}-3-(propanoyloxy)propan-2-yl propanoate], the “SC150 (concentration of the compound required to increase the DNA binding activity by 50%)” value was “+ (+ = 0 μM ≤ SC150 < 0.05 μM)”.

As for `COc1cc(S(C)(=O)=O)ccc1NCC#Cc1cc2c(NC3CCN(CC(COC(=O)C(C)C)OC(=O)C(C)C)CC3)cccc2n1CC(F)(F)F` (stereo not shown) [Compound 588A, 1-{4-[(2-{3-[(4-methanesulfonyl-2-methoxyphenyl)amino]prop-1-yn-1-yl}-1-(2,2,2-trifluoroethyl)-1H-indol-4-yl)amino]piperidin-1-yl}-3-[(2-methylpropanoyl)oxy]propan-2-yl 2-methylpropanoate], the “SC150 (concentration of the compound required to increase the DNA binding activity by 50%)” value was “+++ (+++ = 0.1 μM ≤ SC150 < 0.2 μM)”.

For `COc1cc(S(N)(=O)=O)ccc1NCC#Cc1cc2c(NC3CCN(CC(COC(=O)C(C)C)OC(=O)C(C)C)CC3)cccc2n1CC(F)(F)F` (stereo not shown) [Compound 589A, 1-{4-[(2-{3-[(2-methoxy-4-sulfamoylphenyl)amino]prop-1-yn-1-yl}-1-(2,2,2-trifluoroethyl)-1H-indol-4-yl)amino]piperidin-1-yl}-3-[(2-methylpropanoyl)oxy]propan-2-yl 2-methylpropanoate], the “SC150 (concentration of the compound required to increase the DNA binding activity by 50%)” value is “++ (++ = 0.05 μM ≤ SC150 < 0.1 μM)”.

`COc1cc(S(C)(=O)=O)ccc1NCC#Cc1cc2c(NC3CCN(CC(O)COC(=O)C(C)C)CC3)cccc2n1CC(F)(F)F` (stereo not shown) [Compound 592A, 2-hydroxy-3-{4-[(2-{3-[(4-methanesulfonyl-2-methoxyphenyl)amino]prop-1-yn-1-yl}-1-(2,2,2-trifluoroethyl)-1H-indol-4-yl)amino]piperidin-1-yl}propyl 2-methylpropanoate]: the “SC150 (concentration of the compound required to increase the DNA binding activity by 50%)” value is “+ (+ = 0 μM ≤ SC150 < 0.05 μM)”.

As to `COCC(CN1CCC(Nc2cccc3c2cc(C#CCNc2ccc(S(C)(=O)=O)cc2OC)n3CC(F)(F)F)CC1)OC(C)=O` (stereo not shown) [Compound 593A, 1-{4-[(2-{3-[(4-methanesulfonyl-2-methoxyphenyl)amino]prop-1-yn-1-yl}-1-(2,2,2-trifluoroethyl)-1H-indol-4-yl)amino]piperidin-1-yl}-3-methoxypropan-2-yl acetate], the “SC150 (concentration of the compound required to increase the DNA binding activity by 50%)” value is reported as “+ (+ = 0 μM ≤ SC150 < 0.05 μM)”.

For the molecule `CCC(=O)OCC(O)CN1CCC(Nc2cccc3c2cc(C#CCNc2ccc(S(C)(=O)=O)cc2OC)n3CC(F)(F)F)CC1` (stereo not shown) [Compound 594A], the “SC150 (concentration of the compound required to increase the DNA binding activity by 50%)” value was “+ (+ = 0 μM ≤ SC150 < 0.05 μM)”.

As to `COc1cc(S(=O)(=O)N(CCO)CCO)ccc1NCC#Cc1cc2c(NC3CCN(CC(C)O)CC3)cccc2n1CC(F)(F)F` (stereo not shown) [Compound 595A, N,N-bis(2-hydroxyethyl)-4-{[3-(4-{[1-(2-hydroxypropyl)piperidin-4-yl]amino}-1-(2,2,2-trifluoroethyl)-1H-indol-2-yl)prop-2-yn-1-yl]amino}-3-methoxybenzene-1-sulfonamide], the “SC150 (concentration of the compound required to increase the DNA binding activity by 50%)” value is listed as “+ (+ = 0 μM ≤ SC150 < 0.05 μM)”.
